Experimental data from patent US20160100574A1, “Antimicrobial Compositions Comprising Glyceryl Ethers” (SYMRISE AG, priority 2013, published 2016).

Key:
Type in all cases: cell-based
A. brasiliensis = experiment: Challenge test / synergy (Kull equation), A. brasiliensis; settings: for colony counts Day 2: Day 2, 1% b.w. active in aqueous emulsion of Glyceryl stearyl citrate (Dracorin CE); for colony counts Day 14: Day 14, 1% b.w. active in aqueous emulsion of Glyceryl stearyl citrate (Dracorin CE); for colony counts Day 28: Day 28, 1% b.w. active in aqueous emulsion of Glyceryl stearyl citrate (Dracorin CE)
Protocol: 1% b.w. of heptylglycerin, benzylglycerin and phenylpropylglycerin, respectively was added to an aqueous emulsion of Glyceryl stearyl citrate (Dracorin CE). The formulations were tested in standard challenge tests against various micro-organisms.
To calculate the synergism between compounds of formula (I) and other antimicrobial actives, the Kull equation^1 2 was used
SI=(Cmixture×PA)/CA+(Cmixture×PB)/CB (I)
where SI is the Synergy Index according to Kull^1), 2) CA is the cell count for substance A CB is the cell count for substance B Cmixture is the cell count for the mixture of substances A and B PA is the proportion of the substance A in the mixture PB is the proportion of the substance B in the mixture. ^1 Kull, F. C., Eismann, P. C., Sylvestrowicz, H. D., and R. L. Mayer (1961). Mixtures of Quaternary Ammonium Compounds and Long-chain Fatty Acids as Antifungal Agents. Applied Microbiology 9, 538-541.^2 Steinberg, D.C. (2000). Measuring Synergy. Cosmetics & Toiletries 115 (11), 59-62.
Colony counts of <100 were arbitrarily set to 100, in order to allow for synergy calculations with the above equation. The abbreviation “n.a.” means not applicable.

Staphylococcus aureus = experiment: Minimum inhibitory concentration according to DIN 58940, Staphylococcus aureus; settings: single antimicrobial agents; for MIC: Staphylococcus aureus
Excerpt: (§1) In order to calculate the Synergy Index SI with MIC values, the Kull equation is used as follows:
(§2) SI=(MICmixture×PA)/MICA+(MICmixture×PB)/MICB (II)
(§3) where SI is the Synergy Index according to Kull^1), 2) MICA is the MIC value for substance A MICB is the MIC value for substance B MICmixture is the MIC value for the mixture of substances A and B PA is the proportion of the substance A in the mixture PB is the proportion of the substance B in the mixture. b) Mixtures containing 3 components
(§4) SI=(MICmixture×PA)/MICA+(MICmixture×PB)/MICB+(MICmixture×PC)/MICC
(§5) where SI is the Synergy Index according to Kull^1), 2) MICA is the MIC value for substance A MICB is the MIC value for substance B MICC is the MIC value for substance C MICmixture is the MIC value for the mixture of substances […] PA is the proportion of the substance A in the mixture PB is the proportion of the substance B in the mixture. PC is the proportion of the substance C in the mixture.

Candida albicans = experiment: Minimum inhibitory concentration according to DIN 58940, Candida albicans; settings: single antimicrobial agents; for MIC: Candida albicans
Excerpt: as §1, §2, §3, §4, §5

Aspergillus brasiliensis = experiment: Minimum inhibitory concentration according to DIN 58940, Aspergillus brasiliensis; settings: single antimicrobial agents; for MIC: Aspergillus brasiliensis
Excerpt: as §1, §2, §3, §4, §5

Pseudomonas aeruginosa = experiment: Minimum inhibitory concentration according to DIN 58940, Pseudomonas aeruginosa; settings: single antimicrobial agents; for MIC: Pseudomonas aeruginosa
Excerpt: as §1, §2, §3, §4, §5

Escherichia coli = experiment: Minimum inhibitory concentration according to DIN 58940, Escherichia coli; settings: single antimicrobial agents; for MIC: Escherichia coli, read-out: MIC values E. coli
Excerpt: as §1, §2, §3, §4, §5

C. albicans = experiment: Challenge test of preserved emulsion, C. albicans; settings: for colony counts Day 14: Day 14, 1% b.w. active in aqueous emulsion of Glyceryl stearyl citrate (Dracorin CE); for colony counts Day 28: Day 28, 1% b.w. active in aqueous emulsion of Glyceryl stearyl citrate (Dracorin CE)
Protocol: (§6) 1% b.w. of heptylglycerin, benzylglycerin and phenylpropylglycerin, respectively was added to an aqueous emulsion of Glyceryl stearyl citrate (Dracorin CE). The formulations were tested in standard challenge tests against various micro-organisms. The results are shown in Table 1 and indicate the high activity of the actives against yeast and bacteria, but not against mould.

E. coli = experiment: Challenge test of preserved emulsion, E. coli; settings: for colony counts Day 2: Day 2, 1% b.w. active in aqueous emulsion of Glyceryl stearyl citrate (Dracorin CE); for colony counts Day 7: Day 7, 1% b.w. active in aqueous emulsion of Glyceryl stearyl citrate (Dracorin CE); for colony counts Day 14: Day 14, 1% b.w. active in aqueous emulsion of Glyceryl stearyl citrate (Dracorin CE); for colony counts Day 28: Day 28, 1% b.w. active in aqueous emulsion of Glyceryl stearyl citrate (Dracorin CE)
Protocol: as §6

P. aeruginosa = experiment: Challenge test of preserved emulsion, P. aeruginosa; settings: for colony counts Day 2: Day 2, 1% b.w. active in aqueous emulsion of Glyceryl stearyl citrate (Dracorin CE); for colony counts Day 7: Day 7, 1% b.w. active in aqueous emulsion of Glyceryl stearyl citrate (Dracorin CE); for colony counts Day 14: Day 14, 1% b.w. active in aqueous emulsion of Glyceryl stearyl citrate (Dracorin CE); for colony counts Day 28: Day 28, 1% b.w. active in aqueous emulsion of Glyceryl stearyl citrate (Dracorin CE)
Protocol: as §6

S. aureus = experiment: Challenge test of preserved emulsion, S. aureus; settings: for colony counts Day 2: Day 2, 1% b.w. active in aqueous emulsion of Glyceryl stearyl citrate (Dracorin CE); for colony counts Day 7: Day 7, 1% b.w. active in aqueous emulsion of Glyceryl stearyl citrate (Dracorin CE); for colony counts Day 14: Day 14, 1% b.w. active in aqueous emulsion of Glyceryl stearyl citrate (Dracorin CE); for colony counts Day 28: Day 28, 1% b.w. active in aqueous emulsion of Glyceryl stearyl citrate (Dracorin CE)
Protocol: as §6

[1] = Table 2, day 0, 1.0% total active
[2] = Table 2, day 0, relative to day 0, 1.0% total active
[3] = Table 2, day 2, 1.0% total active
[4] = Table 2, day 2, relative to day 0, 1.0% total active
[5] = Table 2, day 7, 1.0% total active
[6] = Table 2, day 7, relative to day 0, 1.0% total active
[7] = Table 2, day 14, 1.0% total active
[8] = Table 2, day 14, relative to day 0, 1.0% total active
[9] = Table 2, day 28, 1.0% total active
[10] = Table 2, day 28, relative to day 0, <100 set to 100, 1.0% total active
[11] = Day 0, 1% b.w. active in aqueous emulsion of Glyceryl stearyl citrate (Dracorin CE)

With `CC(=O)c1ccc(O)cc1` [4HAP, 4-hydroxyacetophenone] the “Colony counts day 0” value (A. brasiliensis; [1]) was 300.000 cfu/g formulation, the “Relative colony counts day 0” value (A. brasiliensis; [2]) was 1.0000 and the “Colony counts day 2” value (A. brasiliensis; [3]) was 56.000 cfu/g formulation. For the same compound, the “Relative colony counts day 2” value (A. brasiliensis; [4]) was 0.1867, the “Colony counts day 7” value (A. brasiliensis; [5]) was 1.900 cfu/g formulation and the “Relative colony counts day 7” value (A. brasiliensis; [6]) was 0.0063. For the same compound, the “Colony counts day 14” value (A. brasiliensis; [7]) was 1.900 cfu/g formulation, the “Relative colony counts day 14” value (A. brasiliensis; [8]) was 0.0063 and the “Colony counts day 28” value (A. brasiliensis; [9]) was less than 100 cfu/g formulation. For the same compound, the “Relative colony counts day 28” value (A. brasiliensis; [10]) was 0.0003, the “Colony counts day 0” value (A. brasiliensis; Table 3, day 0, 1.0% total active) was 300.000 cfu/g formulation and the “Relative colony counts day 0” value (A. brasiliensis; Table 3, day 0, relative to day 0, 1.0% total active) was 1.0000. The “Colony counts day 2” value (A. brasiliensis; Table 3, day 2, 1.0% total active) was 56.000 cfu/g formulation, the “Relative colony counts day 2” value (A. brasiliensis; Table 3, day 2, relative to day 0, 1.0% total active) was 0.1867 and the “Colony counts day 7” value (A. brasiliensis; Table 3, day 7, 1.0% total active) was 1.900 cfu/g formulation. The “Relative colony counts day 7” value (A. brasiliensis; Table 3, day 7, relative to day 0, 1.0% total active) was 0.0063, the “Colony counts day 14” value (A. brasiliensis; Table 3, day 14, 1.0% total active) was 1.900 cfu/g formulation and the “Relative colony counts day 14” value (A. brasiliensis; Table 3, day 14, relative to day 0, 1.0% total active) was 0.0063. The “Colony counts day 28” value (A. brasiliensis; Table 3, day 28, 1.0% total active) was less than 100 cfu/g formulation, the “Relative colony counts day 28” value (A. brasiliensis; Table 3, day 28, relative to day 0, <100 set to 100, 1.0% total active) was 0.0003 and the “MIC values Staphylococcus aureus” value (Staphylococcus aureus) was 6000 ppm. The “MIC values Candida albicans” value (Candida albicans) was 6000 ppm, the “MIC values Aspergillus brasiliensis” value (Aspergillus brasiliensis) was 4000 ppm and the “MIC values Pseudomonas aeruginosa” value (Pseudomonas aeruginosa) was 4000 ppm. The “MIC values E. coli” value (Escherichia coli) was 4000 ppm.

With `OCC(O)COCc1ccccc1` (stereo not shown) [Benzylglycerin] the “colony counts Day 14” value (C. albicans) was 0 cfu/g formulation, the “colony counts Day 28” value (C. albicans) was 0 cfu/g formulation and the “colony counts Day 0” value (E. coli; [11]) was 250.000 cfu/g formulation. For the same compound, the “colony counts Day 2” value (E. coli) was 0 cfu/g formulation, the “colony counts Day 7” value (E. coli) was 0 cfu/g formulation and the “colony counts Day 14” value (E. coli) was 0 cfu/g formulation. For the same compound, the “colony counts Day 28” value (E. coli) was 0 cfu/g formulation, the “colony counts Day 0” value (P. aeruginosa; [11]) was 210.000 cfu/g formulation and the “colony counts Day 2” value (P. aeruginosa) was 0 cfu/g formulation. The “colony counts Day 7” value (P. aeruginosa) was 0 cfu/g formulation, the “colony counts Day 14” value (P. aeruginosa) was 0 cfu/g formulation and the “colony counts Day 28” value (P. aeruginosa) was 0 cfu/g formulation. For the same compound, the “colony counts Day 0” value (S. aureus; [11]) was 240.000 cfu/g formulation, the “colony counts Day 2” value (S. aureus) was 700 cfu/g formulation and the “colony counts Day 7” value (S. aureus) was less than 100 cfu/g formulation. For the same compound, the “colony counts Day 14” value (S. aureus) was 0 cfu/g formulation, the “colony counts Day 28” value (S. aureus) was 0 cfu/g formulation and the “colony counts Day 0” value (A. brasiliensis; [11]) was 360.000 cfu/g formulation. The “colony counts Day 2” value (A. brasiliensis) was 490.000 cfu/g formulation, the “colony counts Day 14” value (A. brasiliensis) was 300.000 cfu/g formulation and the “colony counts Day 28” value (A. brasiliensis) was 30.000 cfu/g formulation. For the same compound, the MIC (Staphylococcus aureus) was 20000 µg/mL, the MIC (Candida albicans) was 20000 µg/mL and the MIC (Aspergillus brasiliensis) was 20000 µg/mL. It also gave an MIC (Pseudomonas aeruginosa) of 20000 µg/mL and an MIC (Escherichia coli) of 10000 µg/mL.

With `CCCCC(CC)COCC(O)CO` (stereo not shown) [Ethylhexylglycerin] the “Colony counts day 0” value (A. brasiliensis; [1]) was 315.000 cfu/g formulation, the “Relative colony counts day 0” value (A. brasiliensis; [2]) was 1.0000 and the “Colony counts day 2” value (A. brasiliensis; [3]) was 159.000 cfu/g formulation. For the same compound, the “Relative colony counts day 2” value (A. brasiliensis; [4]) was 0.5048, the “Colony counts day 7” value (A. brasiliensis; [5]) was 150.000 cfu/g formulation and the “Relative colony counts day 7” value (A. brasiliensis; [6]) was 0.4762. For the same compound, the “Colony counts day 14” value (A. brasiliensis; [7]) was 304.000 cfu/g formulation, the “Relative colony counts day 14” value (A. brasiliensis; [8]) was 0.9635 and the “Colony counts day 28” value (A. brasiliensis; [9]) was 304.000 cfu/g formulation. For the same compound, the “Relative colony counts day 28” value (A. brasiliensis; [10]) was 0.9635, the “MIC values Staphylococcus aureus” value (Staphylococcus aureus) was 2000 ppm and the “MIC values Candida albicans” value (Candida albicans) was 2000 ppm. For the same compound, the “MIC values Aspergillus brasiliensis” value (Aspergillus brasiliensis) was 2000 ppm, the “MIC values Pseudomonas aeruginosa” value (Pseudomonas aeruginosa) was greater than 20000 ppm and the “MIC values E. coli” value (Escherichia coli) was 2500 ppm.

With `CCCCCCOCC(O)CO` (stereo not shown) [Hexylglycerin] the MIC (Staphylococcus aureus) was 6000 µg/mL, the MIC (Candida albicans) was 6000 µg/mL and the MIC (Aspergillus brasiliensis) was 4000 µg/mL. The MIC (Pseudomonas aeruginosa) was 6000 µg/mL and the MIC (Escherichia coli) was 4000 µg/mL.

For `CCCCCCCCOCC(O)CO` (stereo not shown) [Octylglycerin], the MIC (Staphylococcus aureus) was 1000 µg/mL, the MIC (Candida albicans) was 1000 µg/mL and the MIC (Aspergillus brasiliensis) was 500 µg/mL. For the same compound, the MIC (Pseudomonas aeruginosa) was greater than 2000 µg/mL and the MIC (Escherichia coli) was 1000 µg/mL.

With `OCC(O)COCCCc1ccccc1` (stereo not shown) [Phenylpropylglycerin] the “colony counts Day 7” value (C. albicans; Day 7, 1% b.w. active in aqueous emulsion of Glyceryl stearyl citrate (Dracorin CE)) was less than 10 cfu/g formulation, the “colony counts Day 14” value (C. albicans) was less than 10 cfu/g formulation and the “colony counts Day 28” value (C. albicans) was less than 10 cfu/g formulation. For the same compound, the “colony counts Day 2” value (E. coli) was less than 10 cfu/g formulation, the “colony counts Day 7” value (E. coli) was less than 10 cfu/g formulation and the “colony counts Day 14” value (E. coli) was less than 10 cfu/g formulation. For the same compound, the “colony counts Day 28” value (E. coli) was less than 10 cfu/g formulation, the “colony counts Day 2” value (P. aeruginosa) was less than 10 cfu/g formulation and the “colony counts Day 7” value (P. aeruginosa) was less than 10 cfu/g formulation. For the same compound, the “colony counts Day 14” value (P. aeruginosa) was less than 10 cfu/g formulation, the “colony counts Day 28” value (P. aeruginosa) was less than 10 cfu/g formulation and the “colony counts Day 2” value (S. aureus) was less than 10 cfu/g formulation. For the same compound, the “colony counts Day 7” value (S. aureus) was less than 10 cfu/g formulation, the “colony counts Day 14” value (S. aureus) was less than 10 cfu/g formulation and the “colony counts Day 28” value (S. aureus) was less than 10 cfu/g formulation. For the same compound, the “colony counts Day 2” value (A. brasiliensis) was 500.000 cfu/g formulation, the “colony counts Day 14” value (A. brasiliensis) was 20.000 cfu/g formulation and the “colony counts Day 28” value (A. brasiliensis) was 5.900 cfu/g formulation.
